Reference: the supplement of paper PMC7661543
± gives the standard deviation of the averaged measurements.

Each compound was assayed on HCC-38 (assay: relative cell number vs DMSO control (72 h) (% of DMSO); higher = less growth inhibition (more cells)). Conditions: sgRNA knockout: sgNT, 10 nM.
Method: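 QMAP-Seq: a pool of 5 breast cancer cell lines (ZR-75-1, SKBR3, HCC-38, MDA-MB-231, BT-20), each carrying 12 doxycycline-inducible Cas9 sgRNA perturbations (11 knockouts plus non-targeting sgNT), was treated with compounds for 72 h at four 10-fold doses (10 nM-10 uM or 1 nM-1 uM range). Barcodes were amplified and sequenced, and cell number was interpolated from 293T spike-in standard curves. The result is expressed as % of the median of DMSO wells. Two biological replicates.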

COc1cc2nccc(Oc3ccc(NC(=O)C4(C(=O)Nc5ccc(F)cc5)CC4)cc3)c2cc1OC [Cabozantinib] gave a relative cell number of 87.7 ± 22.

Same assay, conditions: sgRNA knockout: sgNT, 100 nM

CC(C)(C)OC(=O)CN(Cc1ccc(Cl)cc1)Cc1ccc([N+](=O)[O-])s1 [GSK4112] and O=C(O)CC[C@H]1CC[C@@](c2cc(F)ccc2F)(S(=O)(=O)c2ccc(Cl)cc2)CC1 [MK0752] are within error of each other in relative cell number: 95.1 ± 11 for the first, 107 ± 2.6 for the second.

Compared with C=C1C[C@@H]2[C@H](CC[C@]3(C)C(=O)CC[C@@H]23)[C@@]2(C)C=CC(=O)C=C12 [Exemestane], CC(C)[C@]12O[C@H]1[C@@H]1O[C@]13[C@]1(O[C@H]1C[C@H]1C4=C(CC[C@@]13C)C(=O)OC4)[C@@H]2O [Triptolide] is lower in relative cell number: 92 ± 12 for the first, 23.4 ± 5.6 for the second.

First: COc1cc([C@@H]2c3cc4c(cc3[C@@H](O[C@@H]3O[C@@H]5CO[C@@H](c6cccs6)O[C@H]5[C@H](O)[C@H]3O)[C@H]3COC(=O)[C@H]23)OCO4)cc(OC)c1O [Teniposide]
Second: COc1cc(Nc2ncc3c(n2)-c2ccc(Cl)cc2C(c2c(F)cccc2OC)=NC3)ccc1C(=O)O [Alisertib]
The relative cell number of the first is lower: 43 ± 5.7 for the first, 53.9 ± 1 for the second.

COc1cccc2cc(-c3nc([C@H]4CC[C@H](C(=O)O)CC4)n4ncnc(N)c34)[nH]c12 [OSI027] and COc1cc2nccc(Oc3ccc(NC(=O)C4(C(=O)Nc5ccc(F)cc5)CC4)cc3)c2cc1OC [Cabozantinib] are within error of each other in relative cell number: 107 ± 29 for the first, 104 ± 2.3 for the second.

CN(C)C/C=C/C(=O)Nc1cc2c(Nc3ccc(F)c(Cl)c3)ncnc2cc1O[C@H]1CCOC1 [Afatinib] and C#Cc1cccc(Nc2ncnc3cc(OCCOC)c(OCCOC)cc23)c1 [Erlotinib] are within error of each other in relative cell number: 101 ± 22 for the first, 87.3 ± 9.9 for the second.

Cc1cnc(-c2cnc(NCCNc3ccc(C#N)cn3)nc2-c2ccc(Cl)cc2Cl)[nH]1 and Cc1cc(N2CCOCC2)cc2[nH]c(-c3c(NC[C@@H](O)c4cccc(Cl)c4)cc[nH]c3=O)nc12 are within error of each other in relative cell number: 89.08 ± 0.19 for the first, 89.4 ± 24 for the second.

Going from CC[C@H](C)C(=O)O[C@H]1C[C@@H](C)C=C2C=C[C@H](C)[C@H](CC[C@@H]3C[C@@H](O)CC(=O)O3)[C@H]21 [Lovastatin] to C[C@]1(c2nc3c(C(N)=O)cccc3[nH]2)CCCN1 [Veliparib], the relative cell number rises from 85.9 ± 6.2 to 104 ± 4.2.

First: NC(=O)Nc1sc(-c2ccc(F)cc2)cc1C(N)=O [TPCA1]
Second: Cc1ccc(S(=O)(=O)OCC(=O)Nc2ccc(C(=O)O)c(O)c2)cc1
The relative cell number of the first is lower: 94.5 ± 5.5 for the first, 102 ± 1.3 for the second.

First: Cc1ccc(C(=O)N(CCCN)[C@@H](c2oc3cc(Cl)ccc3c(=O)c2Cc2ccccc2)C(C)C)cc1
Second: C=CCc1cccc(/C=N/NC(=O)CN2CCN(Cc3ccccc3)CC2)c1O [PAC1]
The relative cell number of the first is lower: 27.8 ± 8.2 for the first, 103 ± 7 for the second.

Going from CS(=O)(=O)N1CCN(Cc2cc3nc(-c4cccc5[nH]ncc45)nc(N4CCOCC4)c3s2)CC1 [GDC0941] to Cc1nc(Nc2n[nH]c3c2CN(C(=O)N[C@H](CN(C)C)c2ccccc2)C3(C)C)c2sccc2n1, the relative cell number falls from 95 ± 5.9 to 54.5 ± 3.9.

Same assay, conditions: sgRNA knockout: sgNT, 1000 nM

CC(C)(C)OC(=O)CN(Cc1ccc(Cl)cc1)Cc1ccc([N+](=O)[O-])s1 [GSK4112] and O=C(O)CC[C@H]1CC[C@@](c2cc(F)ccc2F)(S(=O)(=O)c2ccc(Cl)cc2)CC1 [MK0752] are within error of each other in relative cell number: 95.8 ± 10 for the first, 112 ± 14 for the second.

Going from C=C1C[C@@H]2[C@H](CC[C@]3(C)C(=O)CC[C@@H]23)[C@@]2(C)C=CC(=O)C=C12 [Exemestane] to CC(C)[C@]12O[C@H]1[C@@H]1O[C@]13[C@]1(O[C@H]1C[C@H]1C4=C(CC[C@@]13C)C(=O)OC4)[C@@H]2O [Triptolide], the relative cell number falls from 113 ± 3.1 to 20.5 ± 2.7.

Going from COc1cc([C@@H]2c3cc4c(cc3[C@@H](O[C@@H]3O[C@@H]5CO[C@@H](c6cccs6)O[C@H]5[C@H](O)[C@H]3O)[C@H]3COC(=O)[C@H]23)OCO4)cc(OC)c1O [Teniposide] to COc1cc(Nc2ncc3c(n2)-c2ccc(Cl)cc2C(c2c(F)cccc2OC)=NC3)ccc1C(=O)O [Alisertib], the relative cell number rises from 25.52 ± 0.049 to 57.4 ± 9.7.

Compared with COc1cccc2cc(-c3nc([C@H]4CC[C@H](C(=O)O)CC4)n4ncnc(N)c34)[nH]c12 [OSI027], COc1cc2nccc(Oc3ccc(NC(=O)C4(C(=O)Nc5ccc(F)cc5)CC4)cc3)c2cc1OC [Cabozantinib] is higher in relative cell number: 84.2 ± 1.9 for the first, 97.8 ± 2.8 for the second.

Compared with CN(C)C/C=C/C(=O)Nc1cc2c(Nc3ccc(F)c(Cl)c3)ncnc2cc1O[C@H]1CCOC1 [Afatinib], C#Cc1cccc(Nc2ncnc3cc(OCCOC)c(OCCOC)cc23)c1 [Erlotinib] is higher in relative cell number: 75.7 ± 7.1 for the first, 99.1 ± 6.6 for the second.

Going from Cc1cnc(-c2cnc(NCCNc3ccc(C#N)cn3)nc2-c2ccc(Cl)cc2Cl)[nH]1 to Cc1cc(N2CCOCC2)cc2[nH]c(-c3c(NC[C@@H](O)c4cccc(Cl)c4)cc[nH]c3=O)nc12, the relative cell number falls from 104 ± 2.4 to 93.6 ± 7.3.

CC[C@H](C)C(=O)O[C@H]1C[C@@H](C)C=C2C=C[C@H](C)[C@H](CC[C@@H]3C[C@@H](O)CC(=O)O3)[C@H]21 [Lovastatin] and C[C@]1(c2nc3c(C(N)=O)cccc3[nH]2)CCCN1 [Veliparib] are within error of each other in relative cell number: 102 ± 22 for the first, 107 ± 18 for the second.

NC(=O)Nc1sc(-c2ccc(F)cc2)cc1C(N)=O [TPCA1] and Cc1ccc(S(=O)(=O)OCC(=O)Nc2ccc(C(=O)O)c(O)c2)cc1 are within error of each other in relative cell number: 100 ± 6.1 for the first, 91.8 ± 5.4 for the second.

First: Cc1ccc(C(=O)N(CCCN)[C@@H](c2oc3cc(Cl)ccc3c(=O)c2Cc2ccccc2)C(C)C)cc1
Second: C=CCc1cccc(/C=N/NC(=O)CN2CCN(Cc3ccccc3)CC2)c1O [PAC1]
The relative cell number of the first is lower: 28.9 ± 4.7 for the first, 90 ± 11 for the second.

First: CS(=O)(=O)N1CCN(Cc2cc3nc(-c4cccc5[nH]ncc45)nc(N4CCOCC4)c3s2)CC1 [GDC0941]
Second: Cc1nc(Nc2n[nH]c3c2CN(C(=O)N[C@H](CN(C)C)c2ccccc2)C3(C)C)c2sccc2n1
The relative cell number of the first is higher: 79.2 ± 12 for the first, 31.5 ± 1.2 for the second.

Same assay, conditions: sgRNA knockout: sgNT, 10000 nM

CC(C)(C)OC(=O)CN(Cc1ccc(Cl)cc1)Cc1ccc([N+](=O)[O-])s1 [GSK4112] and O=C(O)CC[C@H]1CC[C@@](c2cc(F)ccc2F)(S(=O)(=O)c2ccc(Cl)cc2)CC1 [MK0752] are within error of each other in relative cell number: 96.5 ± 11 for the first, 115 ± 43 for the second.

C=C1C[C@@H]2[C@H](CC[C@]3(C)C(=O)CC[C@@H]23)[C@@]2(C)C=CC(=O)C=C12 [Exemestane] and CC[C@H](C)C(=O)O[C@H]1C[C@@H](C)C=C2C=C[C@H](C)[C@H](CC[C@@H]3C[C@@H](O)CC(=O)O3)[C@H]21 [Lovastatin] are within error of each other in relative cell number: 109 ± 25 for the first, 73.4 ± 13 for the second.

First: COc1cc([C@@H]2c3cc4c(cc3[C@@H](O[C@@H]3O[C@@H]5CO[C@@H](c6cccs6)O[C@H]5[C@H](O)[C@H]3O)[C@H]3COC(=O)[C@H]23)OCO4)cc(OC)c1O [Teniposide]
Second: COc1cccc2cc(-c3nc([C@H]4CC[C@H](C(=O)O)CC4)n4ncnc(N)c34)[nH]c12 [OSI027]
The relative cell number of the first is lower: 13.4 ± 2 for the first, 31.2 ± 0.23 for the second.

First: CN(C)C/C=C/C(=O)Nc1cc2c(Nc3ccc(F)c(Cl)c3)ncnc2cc1O[C@H]1CCOC1 [Afatinib]
Second: Cc1cnc(-c2cnc(NCCNc3ccc(C#N)cn3)nc2-c2ccc(Cl)cc2Cl)[nH]1
The relative cell number of the first is lower: 21.2 ± 1.6 for the first, 126.9 ± 0.6 for the second.

With NC(=O)Nc1sc(-c2ccc(F)cc2)cc1C(N)=O [TPCA1] the relative cell number was 74.1 ± 4.5.
